For this experiment, the target named is Uracil-DNA glycosylase (Escherichia coli (strain K12)) (UniProt P12295). Kind of experiment: inhibitors of E. coli UDG, SAR follow-up, counter-screen for APOBEC3G deaminase inhibitor project, biochemical, UDG counterscreen (AID 602135). As to conditions: FAM/TAMRA oligo fluorescence. (In general: Counterscreens check selectivity or assay interference.)

Active and inactive are the calls of the source.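 How the source made its calls: active means mean IC50 under 10 µM against uracil DNA glycosylase, used as a counter screen; inactive means the rest.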

Chain of Uracil-DNA glycosylase (Escherichia coli (strain K12)) (P12295 whole entry, looked up): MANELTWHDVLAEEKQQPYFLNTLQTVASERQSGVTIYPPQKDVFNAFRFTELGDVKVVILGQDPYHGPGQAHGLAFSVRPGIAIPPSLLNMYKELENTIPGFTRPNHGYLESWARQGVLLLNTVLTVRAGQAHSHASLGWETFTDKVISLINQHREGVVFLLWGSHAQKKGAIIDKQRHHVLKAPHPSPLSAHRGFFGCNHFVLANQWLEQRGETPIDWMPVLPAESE

As for `CC(C)(C)NC(=O)CSc1nc2ccc(NC(=O)CSc3nnc(N)s3)cc2s1`, the IC50 was > 99 µM (inactive).
Regarding `COc1cc(C=Nn2c(-c3n[nH]c4c3CCC4)n[nH]c2=S)ccc1O`, the IC50 is > 99 µM (inactive).
Take `Cc1ccc(C=Nn2c(-c3ccco3)n[nH]c2=S)s1`: the IC50 is > 99 µM (inactive).
As to `Cc1ccc2[nH]cc(/C=C/c3cc[n+](C)cc3)c2c1`, the IC50 was > 99 µM (inactive).
As for `Cn1nc([N+](=O)[O-])nc1S(C)(=O)=O`, the IC50 is > 99 µM (inactive).
On to `CCCCn1c(=O)c2ccccc2n2c(=S)[nH]nc12`, for which the IC50 was > 99 µM (inactive).
For `CCCCCn1c(=O)c2ccccc2n2c(=S)[nH]nc12`, the IC50 is > 99 µM (inactive).
With `Cc1ccc(C)n1Cc1ccc(C(=O)O)cc1`, the IC50 was > 99 µM (inactive).
Under `O=C(NCc1ccc2c(c1)OCO2)c1cc2ncc(Br)cn2n1` stands > 99 µM (inactive); under `CC(=O)c1ccc2c(c1)C1C=CCC1C(C(=O)O)N2` (stereo not given), > 99 µM (inactive); under `O=C(NCc1ccc2c(c1)OCO2)c1nn2cccnc2c1Cl`, > 99 µM (inactive).
Under `CCC(=O)Nc1cccc(-c2nnc(SCC(=O)NCc3ccco3)n2C)c1` stands > 99 µM (inactive).
Regarding `CC(C(=O)O)N1C(=O)/C(=C/C=C/c2ccco2)SC1=S` (stereo not given), the IC50 was > 99 µM (inactive).
Under `S=c1[nH]nc2c3c4c(sc3ncn12)CCCC4` stands > 99 µM (inactive); under `S=c1[nH]nc(NCCc2ccccc2)s1`, > 99 µM (inactive); under `C[n+]1cccc(C(=O)Nc2ccccc2)c1`, > 99 µM (inactive).
For `CCn1ncc(-c2ccnc3cc(C(=O)O)nn23)c1C`, the IC50 is > 99 µM (inactive).
Regarding `Cc1ccc[n+](CC(=O)Nc2cc(C(F)(F)F)ccc2N2CCOCC2)c1`, the IC50 is > 99 µM (inactive).
In the case of `COc1ccc(-c2nc(=S)[nH][nH]2)cc1`, the IC50 is > 99 µM (inactive).
Regarding `Cc1ccc(-c2csc3n[nH]c(=S)n23)cc1`, the IC50 is > 99 µM (inactive).
Consider `Cc1ccc2c(c1C)NC(C(=O)O)C1CC=CC21` (stereo not given), for which the IC50 is > 99 µM (inactive).
Consider `Nn1c(-c2cccc(Br)c2)n[nH]c1=S`, for which the IC50 is > 99 µM (inactive).
Take `O=C1NC(=S)NC(=O)C1=Cc1ccc2c(c1)CCN2CCCCl`: the IC50 is > 99 µM (inactive).
For the compound `CC1(C)Oc2ccc3ccc(=O)oc3c2/C(=C/NCCO)C1=O`, the IC50 is > 99 µM (inactive).
For the compound `CCOC(=O)c1ccc2c(c1)N(C)C(=O)c1ccccc1S2`, the IC50 was > 99 µM (inactive).

As usually defined, the IC50 is the point on the concentration scale where inhibition reaches its midpoint.

Values taken from PubChem BioAssay AID602135 (Sanford-Burnham Center for Chemical Genomics, 2011).
